Measurements published in patent US20210115104A1, “AMYLIN ANALOGUES” (Zealand Pharma A/S, priority 2015, published 2021).
Where two headings read alike, the source gives them in different places. *1 amine or outer side, *2 acyl side, *3 side chain or, on linkers, in order; H or OH if unused. Where a SMILES comes first, the peptide text is derived from it. Bridges are numbered along the chain shown (N, C = ends). [ ]: non-standard residue; d: D form. The star is where a group is joined. C20 diacid = O=C(O)CCCCCCCCCCCCCCCCCCC(=O)*; γGlu = O=C(O)[C@H](CCC(=O)[*:2])N[*:1]; Hyp = O=C(O)[C@@H]1C[C@@H](O)CN1; NMeI = CC[C@H](C)[C@H](NC)C(=O)O; Aad = N[C@@H](CCCC(=O)O)C(=O)O; Sar = CNCC(=O)O

Assays:
[1] = Assessment of chemical stability (RP-HPLC normalized purity); assay type: physicochemical; details: for Normalized purity after 7 days, 40° C., pH 4: pH 4, 0.2 mg/ml; for Normalized purity after 7 days, 40° C., pH 4 / Normalized purity after 7 days, 40° C., pH 6 / Normalized purity after 7 days, 40° C., pH 7.5 / Normalized purity after 7 days, 40° C., pH 9: Table 1; for Normalized purity after 7 days, 40° C., pH 6: pH 6, 0.2 mg/ml; for Normalized purity after 7 days, 40° C., pH 7.5: pH 7.5, 0.2 mg/ml; for Normalized purity after 7 days, 40° C., pH 9: pH 9, 0.2 mg/ml; for Normalized purity pH 4 (Table 5): pH 4, repeat of Example 6 for pairs with/without Asn-Asn at 21-22; for Normalized purity pH 6 (Table 5): pH 6, repeat of Example 6 for pairs with/without Asn-Asn at 21-22; for Normalized purity pH 7.5 (Table 5): pH 7.5, repeat of Example 6 for pairs with/without Asn-Asn at 21-22; for Normalized purity pH 9 (Table 5): pH 9, repeat of Example 6 for pairs with/without Asn-Asn at 21-22
Outline: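 Purity after 7 days at 40° C is expressed relative to T=0 (set to 100) for each pH. Samples at 0.2 mg/ml, pH 4, 6, 7.5 or 9, analyzed by RP-HPLC with UV 220 nm on C8 (ammonium formate) or C18 (TFA) gradients.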

[2] = target: T1, human calcitonin receptor (hCTR2) (Homo sapiens, UniProt P30988); assay: hCTR2 cAMP assay (AlphaScreen) in COS7 cells; assay type: cell-based
T1 construct: expressed in transfected cells
T1 sequence (P30988 25-474): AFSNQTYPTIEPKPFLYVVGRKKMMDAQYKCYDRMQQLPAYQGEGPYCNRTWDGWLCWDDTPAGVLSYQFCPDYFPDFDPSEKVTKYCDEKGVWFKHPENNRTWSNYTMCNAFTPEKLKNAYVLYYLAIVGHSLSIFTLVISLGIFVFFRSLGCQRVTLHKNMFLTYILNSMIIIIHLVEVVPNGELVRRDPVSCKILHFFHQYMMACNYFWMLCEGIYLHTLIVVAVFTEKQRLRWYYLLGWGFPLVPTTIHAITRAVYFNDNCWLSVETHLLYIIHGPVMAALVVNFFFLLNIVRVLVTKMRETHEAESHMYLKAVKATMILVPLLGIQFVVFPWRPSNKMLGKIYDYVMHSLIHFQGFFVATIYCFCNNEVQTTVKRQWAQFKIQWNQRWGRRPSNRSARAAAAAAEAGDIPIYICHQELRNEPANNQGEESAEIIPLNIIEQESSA
Outline: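 cAMP induction, read by AlphaScreen after lysis, gives EC50 values via 4PL curve fitting. Peptides were applied at rising concentrations for 15 min at 37 °C, with IBMX and 0.1% casein in HEPES-buffered Tyrode pH 7.4, to COS7 cells (no endogenous RAMPs) stably expressing human CTR2.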

[3] = target: T2, human amylin receptor 3 (hAMYR3), hCTR2 co-expressed with hRAMP3 (Homo sapiens, UniProt O60896+P30988); assay: hAMYR3 cAMP assay (AlphaScreen) in COS7 cells; assay type: cell-based
T2 construct: expressed in transfected cells
T2 sequence (P30988 25-474): T1 sequence (P30988 25-474)
T2 sequence (O60896 24-148 partner): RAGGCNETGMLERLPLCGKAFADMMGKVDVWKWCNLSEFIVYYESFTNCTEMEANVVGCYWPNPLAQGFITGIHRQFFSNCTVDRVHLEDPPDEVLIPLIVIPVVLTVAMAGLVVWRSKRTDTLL
Outline: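 EC50 values derive from 4PL curve fits of cAMP (AlphaScreen) in lysates of RAMP-naive COS7 cells stably carrying hCTR2 plus hRAMP3. Peptide dilution series were applied for 15 min at 37 °C in pH 7.4 Tyrode buffer containing 100 µM IBMX and 0.1% casein.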

[4] = cAMP induction, COS7 cells expressing hCTR2, Table 1, read-out: hCTR2 EC50
[5] = cAMP induction, COS7 cells expressing hAMYR3, Table 1, read-out: hAMYR3 EC50

Normalized purity after 7 days, 40° C., pH 4 [1] | Normalized purity after 7 days, 40° C., pH 6 [1] | Normalized purity after 7 days, 40° C., pH 7.5 [1] | Normalized purity after 7 days, 40° C., pH 9 [1] | EC50 [2, 4] | EC50 [3, 5] | Structure (SMILES) | Normalized purity pH 4 (Table 5) [1] | Normalized purity pH 6 (Table 5) [1] | Normalized purity pH 7.5 (Table 5) [1] | Normalized purity pH 9 (Table 5) [1] | EC50 [2] | EC50 [3]
A (A = >90%) | A (A = >90%) | A (A = >90%) | A (A = >90%) | 0.1 nM | 0.22 nM | CC[C@H](C)[C@@H](C(=O)N[C@@H](CC(C)C)C(=O)N[C@@H](CO)C(=O)N[C@@H](CO)C(=O)N[C@H](C(=O)N[C@@H](CCC(=O)O)C(=O)N[C@H](C(=O)NCC(=O)N[C@@H](CO)C(=O)N[C@@H](CC(N)=O)C(=O)N[C@H](C(=O)N1CCC[C@H]1C(N)=O)[C@@H](C)O)C(C)C)[C@@H](C)O)N(C)C(=O)[C@H](C)NC(=O)CN(C)C(=O)[C@H](Cc1ccccc1)NC(=O)[C@H](CO)NC(=O)[C@H](CO)NC(=O)[C@H](CCCNC(=N)N)NC(=O)[C@H](CCC(N)=O)NC(=O)[C@H](CC(C)C)NC(=O)[C@H](Cc1ccccc1)NC(=O)[C@H](Cc1c[nH]cn1)NC(=O)[C@H](C)NC(=O)[C@H](CC(C)C)NC(=O)[C@H](CCCNC(=N)N)NC(=O)[C@H](CC(=O)O)NC(=O)[C@@H](NC(=O)[C@H](C)NC(=O)[C@@H]1CSSC[C@H](NC(=O)[C@H](CCCNC(=N)N)NC(=O)CC[C@H](NC(=O)CCCCCCCCCCCCCCCCCCC(=O)O)C(=O)O)C(=O)N[C@@H](CCC(N)=O)C(=O)N[C@@H]([C@@H](C)O)C(=O)N[C@@H](C)C(=O)N[C@@H]([C@@H](C)O)C(=O)N1)[C@@H](C)O [Compound 92, [19CD]-isoGlu-R-C( )-QTAT-C( )-ATDRLAHFLQRSSF-Gly(Me)-A-Ile(Me)-LSSTEVGSNTP-NH2] ({C20 diacid-γGlu}-RCQTATCATDRLAHFLQRSSF[Sar]A[NMeI]LSSTEVGSNTP-NH2; disulfide 2-7) | – | – | – | – | – | –
A (A = >90%) | A (A = >90%) | A (A = >90%) | A (A = >90%) | 0.18 nM | 0.2 nM | CC[C@H](C)[C@@H](C(=O)N[C@@H](CC(C)C)C(=O)N[C@@H](CO)C(=O)N[C@@H](CO)C(=O)N[C@H](C(=O)N[C@@H](CCC(=O)O)C(=O)N[C@H](C(=O)NCC(=O)N[C@@H](CO)C(=O)N[C@@H](CC(N)=O)C(=O)N[C@H](C(=O)N1C[C@H](O)C[C@H]1C(N)=O)[C@@H](C)O)C(C)C)[C@@H](C)O)N(C)C(=O)[C@H](C)NC(=O)CN(C)C(=O)[C@H](Cc1ccccc1)NC(=O)[C@H](CCCNC(=N)N)NC(=O)[C@H](CCC(N)=O)NC(=O)[C@H](CC(C)C)NC(=O)[C@H](Cc1ccccc1)NC(=O)[C@H](CCCC(=O)O)NC(=O)[C@H](C)NC(=O)[C@H](CC(C)C)NC(=O)[C@H](CCCNC(=N)N)NC(=O)[C@H](CC(=O)O)NC(=O)[C@@H](NC(=O)[C@H](C)NC(=O)[C@@H]1CSSC[C@H](NC(=O)[C@H](CCCNC(=N)N)NC(=O)CC[C@H](NC(=O)CCCCCCCCCCCCCCCCCCC(=O)O)C(=O)O)C(=O)N[C@@H](CCC(N)=O)C(=O)N[C@@H]([C@@H](C)O)C(=O)N[C@@H](C)C(=O)N[C@@H]([C@@H](C)O)C(=O)N1)[C@@H](C)O [Compound 95, [19CD]-isoGlu-R-C( )-QTAT-C( )-ATDRLA-Aad-FLQRF-Gly(Me)-A-Ile(Me)-LSSTEVGSNT-Hyp-NH2] ({C20 diacid-γGlu}-RCQTATCATDRLA[Aad]FLQRF[Sar]A[NMeI]LSSTEVGSNT[Hyp]-NH2; disulfide 2-7) | – | – | – | – | – | –
– | – | – | – | – | – | CC[C@H](C)[C@@H](C(=O)N[C@@H](CC(C)C)C(=O)N[C@@H](CO)C(=O)N[C@@H](CO)C(=O)N[C@H](C(=O)N[C@@H](CCC(=O)O)C(=O)N[C@H](C(=O)NCC(=O)N[C@@H](CO)C(=O)N[C@@H](CC(N)=O)C(=O)N[C@H](C(=O)N1C[C@H](O)C[C@H]1C(N)=O)[C@@H](C)O)C(C)C)[C@@H](C)O)N(C)C(=O)[C@H](C)NC(=O)CN(C)C(=O)[C@H](Cc1ccccc1)NC(=O)[C@H](CC(N)=O)NC(=O)[C@H](CC(N)=O)NC(=O)[C@H](CO)NC(=O)[C@H](CO)NC(=O)[C@H](CCCNC(=N)N)NC(=O)[C@H](CCC(N)=O)NC(=O)[C@H](CC(C)C)NC(=O)[C@H](Cc1ccccc1)NC(=O)[C@H](CCCC(=O)O)NC(=O)[C@H](C)NC(=O)[C@H](CC(C)C)NC(=O)[C@H](CCCNC(=N)N)NC(=O)[C@H](CCC(=O)O)NC(=O)[C@@H](NC(=O)[C@H](C)NC(=O)[C@@H]1CSSC[C@H](NC(=O)[C@H](CCCNC(=N)N)NC(=O)CC[C@H](NC(=O)CCCCCCCCCCCCCCCCCCC(=O)O)C(=O)O)C(=O)NCC(=O)N[C@@H]([C@@H](C)O)C(=O)N[C@@H](C)C(=O)N[C@@H]([C@@H](C)O)C(=O)N1)[C@@H](C)O [Compound 98, [19CD]-isoGlu-R-C( )-GTAT-C( )-ATERLA-Aad-FLQRSSNNF-Gly(Me)-A-Ile(Me)-LSSTEVGSNT-Hyp-NH2, reference compound] ({C20 diacid-γGlu}-RCGTATCATERLA[Aad]FLQRSSNNF[Sar]A[NMeI]LSSTEVGSNT[Hyp]-NH2; disulfide 2-7) | A (A = >90%) | A (A = >90%) | B (B = 70-90%) | B (B = 70-90%) | 7.2 nM | 0.38 nM
– | – | – | – | – | – | CC[C@H](C)[C@@H](C(=O)N[C@@H](CC(C)C)C(=O)N[C@@H](CO)C(=O)N[C@@H](CO)C(=O)N[C@H](C(=O)N[C@@H](CCC(=O)O)C(=O)N[C@H](C(=O)NCC(=O)N[C@@H](CO)C(=O)N[C@@H](CC(N)=O)C(=O)N[C@H](C(=O)N1C[C@H](O)C[C@H]1C(N)=O)[C@@H](C)O)C(C)C)[C@@H](C)O)N(C)C(=O)[C@H](C)NC(=O)CN(C)C(=O)[C@H](Cc1ccccc1)NC(=O)[C@H](CC(N)=O)NC(=O)[C@H](CC(N)=O)NC(=O)[C@H](CO)NC(=O)[C@H](CO)NC(=O)[C@H](CCCNC(=N)N)NC(=O)[C@H](CCC(N)=O)NC(=O)[C@H](CC(C)C)NC(=O)[C@H](Cc1ccccc1)NC(=O)[C@H](Cc1c[nH]cn1)NC(=O)[C@H](C)NC(=O)[C@H](CC(C)C)NC(=O)[C@H](CCCNC(=N)N)NC(=O)[C@H](CCC(=O)O)NC(=O)[C@@H](NC(=O)[C@H](C)NC(=O)[C@@H]1CSSC[C@H](NC(=O)[C@H](CCCNC(=N)N)NC(=O)CC[C@H](NC(=O)CCCCCCCCCCCCCCCCCCC(=O)O)C(=O)O)C(=O)N[C@@H](CCC(N)=O)C(=O)N[C@@H]([C@@H](C)O)C(=O)N[C@@H](C)C(=O)N[C@@H]([C@@H](C)O)C(=O)N1)[C@@H](C)O [Compound 99, [19CD]-isoGlu-R-C( )-QTAT-C( )-ATERLAHFLQRSSNNF-Gly(Me)-A-Ile(Me)-LSSTEVGSNT-Hyp-NH2, reference compound] ({C20 diacid-γGlu}-RCQTATCATERLAHFLQRSSNNF[Sar]A[NMeI]LSSTEVGSNT[Hyp]-NH2; disulfide 2-7) | A (A = >90%) | A (A = >90%) | B (B = 70-90%) | B (B = 70-90%) | 3.8 nM | 0.59 nM
